# In patent US20140057887A1, “NOVEL PLATINUM-CARBENE COMPLEXES AND USE THEREOF AS MEDICAMENTS” (priority 2010, published 2014):
# Key:
# PC3 [1] = assay: Cytotoxicity in vitro, IC50 on PC3; type: cell-based; conditions: prostatic adenocarcinoma
# Method: (§1) (5% CO2). […] All the treatments are carried out in triplicate.
# (§2) PC3: prostatic adenocarcinoma
# (§3) The cytotoxicity of a compound against a cancer cell line is evaluated.
# SK-OV3 [2] = assay: Percentage of cellular inhibition at 10 μM, SK-OV3; type: cell-based; conditions: final concentration 10 μM; ovarian adenocarcinoma
# Method: as §1
# (§4) SK-OV-3 and OVCAR8: ovarian adenocarcinomas
# HCT116 [3] = assay: Percentage of cellular inhibition at 10 μM, HCT116; type: cell-based, human; conditions: final concentration 10 μM; colon carcinoma
# Method: as §1
# HL60 = assay: Percentage of cellular inhibition at 10 μM, HL60; type: cell-based; conditions: final concentration 10 μM; leukaemia
# Method: as §1
# SK-OV3 [4] = assay: Cytotoxicity in vitro, IC50 on SK-OV3; type: cell-based; conditions: ovarian adenocarcinoma
# Method: as §1, §4, §3
# MCF7 [5] = assay: Cytotoxicity in vitro, IC50 on MCF7; type: cell-based; conditions: breast carcinoma
# Method: as §1, §3
# OVCAR8 = assay: Percentage of cellular inhibition at 10 μM, OVCAR8; type: cell-based; conditions: final concentration 10 μM; ovarian adenocarcinoma
# Method: as §1, §4
# MCF7 [6] = assay: Percentage of cellular inhibition at 10 μM, MCF7; type: cell-based; conditions: final concentration 10 μM; breast carcinoma
# Method: as §1
# EPC [7] = assay: Cytotoxicity in vitro, IC50 on EPC (endothelial progenitor cells); type: cell-based
# Method: as §1
# (§5) EPC: endothelial progenitor cells
# (§6) The endothelial progenitor cells (EPC) play an important role in angiogenesis and vasculogenesis; these last-mentioned contribute to tumour growth, are mobilized by cytokines secreted at cancer sites and contribute to postnatal vasculogenesis and to pathological neovascularization.
# as §3
# EPC [8] = assay: Percentage of cellular inhibition at 10 μM, EPC; conditions: for anti-angiogenic activity by inhibition of growth of EPC cells (in words): 10 μM; for Inhibition (in %) {EPC}: final concentration 10 μM, endothelial progenitor cells
# Method: as §1, §6, §5
# KB = assay: Percentage of cellular inhibition at 10 μM, KB; type: cell-based; conditions: final concentration 10 μM; buccal carcinoma
# Method: as §1
# PC3 [9] = assay: Percentage of cellular inhibition at 10 μM, PC3; type: cell-based; conditions: final concentration 10 μM; prostatic adenocarcinoma
# Method: as §1, §2
# [10] = tested on: cell lines KB, SK-OV3, OVCAR-8, HL60, MCF7, HCT116, PC3, MRCS, Vero and EPC; assay: Cellular inhibition, overall statements on the panel of cell lines; type: cell-based; conditions: 10 μM, panel of cancer and non-cancerous cell lines
# Description: The results obtained are presented below.
# HCT116 [11] = assay: Cytotoxicity in vitro, IC50 on HCT116; type: cell-based, human; conditions: colon carcinoma
# Method: as §1, §3
# [12] = Measurement of water-solubility; type: physicochemical; conditions: ambient temperature and pressure
Molecule,IC50 (PC3 [1]) [µM],Inhibition (in %) {SK-OV3} (SK-OV3 [2]) [%],Inhibition (in %) {HCT116} (HCT116 [3]) [%],Inhibition (in %) {HL60} (HL60) [%],IC50 (SK-OV3 [4]) [µM],IC50 (MCF7 [5]) [µM],Inhibition (in %) {OVCAR8} (OVCAR8) [%],Inhibition (in %) {MCF7} (MCF7 [6]) [%],IC50 (EPC [7]) [µM],anti-angiogenic activity by inhibition of growth of EPC cells (in words) (EPC [8]),Inhibition (in %) {EPC} (EPC [8]) [%],Inhibition (in %) {KB} (KB) [%],Inhibition (in %) {PC3} (PC3 [9]) [%],"inhibition of cell growth, overall statement on the cell panel (in words) [10]",IC50 (HCT116 [11]) [µM],"solubility ([12]; water, thermodynamic from solid) [µg/mL]",Water-solubility [12] [µg/mL]
"CCCCCCCn1ccn(C)[c]1=[Pt]([I])[I].c1ccncc1 [Example 9, trans-diiodo(N-pyridine)[1-methyl-3-heptyl-imidazol-2-ylidene]platinum(II)]",0.7,98.5,98.2,97.2,0.2,0.2,96.8,98.6,1,anti-angiogenic activity,100.0,100.8,91.3,–,–,–,–
"COCCOCCOCCOCCn1ccn(C)[c]1=[Pt]([I])[I].NC1CCCCC1 [Example 13, trans-diiodo(N-cyclohexylamine)[1-methyl-3-(2,5,8,11-tetraoxatridecan-13-yl)-imidazol-2-ylidene]platinum(II)]",–,90.9,94.0,87.3,–,–,92.4,94.2,–,anti-angiogenic activity,96.1,100.4,83.8,improves the activity of inhibition of cell growth,–,–,–
"CCC(C)[C@H]([NH][Pt]([I])([I])=[c]1n(C)ccn1Cc1ccccc1)C(=O)N[C@@H](CCCCNC(=O)OCc1ccccc1Cl)C(=O)NCC(=O)OC (stereo partly drawn) [Example 21, trans-diiodo(N-[methyl 2-((S)-2-((2S,3R)-2-amino-3-methylpentanamido)-6-((((2-chlorobenzyl)oxy)carbonyl)amino)hexanamido)acetate])[1-methyl-3-benzyl-imidazol-2-ylidene]platinum(II)]",4.6,95.9,97.2,90.5,3.7,4.1,93.3,96.2,–,anti-angiogenic activity,101.3,100.1,87.0,–,1.9,–,–
"Cn1ccn(Cc2ccccc2)[c]1=[Pt]([I])([I])[N]1CCC[C@H]1C(N)=O [Example 25, trans-diiodo(N-(L)-prolinamide)[1-methyl-3-benzyl-imidazol-2-ylidene]platinum(II)]",0.3,97.2,96.6,91.0,0.2,0.2,93.5,96.2,–,anti-angiogenic activity,96.1,98.6,94.6,–,–,–,–
"Cn1ccn(Cc2ccccc2)[c]1=[Pt]([I])([I])[NH]CCO [Example 26, trans-diiodo(N-ethanolamine)[1-methyl-3-benzyl-imidazol-2-ylidene]platinum(II)]",0.6,97.7,96.6,92.5,0.2,0.3,94.0,96.3,–,anti-angiogenic activity,99.1,98.2,94.0,–,–,–,–
"Cn1ccn(CCC[Si](C)(C)C)[c]1=[Pt]([I])[I].c1ccncc1 [Example 28, trans-diiodo(N-pyridine)[1-methyl-3-(3-(trimethylsilyl)propyl)-imidazol-2-ylidene]platinum(II)]",0.5,100.4,99.4,99.6,0.2,0.2,98.0,99.2,0.6,anti-angiogenic activity,100.3,99.8,91.5,–,–,–,–
"CN(C)c1cccc2c(S(=O)(=O)N3CC[N]([Pt]([I])([I])=[c]4n(C)ccn4Cc4ccccc4)CC3)cccc12 [Example 30, trans-diiodo(N—[N,N-dimethyl-5-(piperazin-1-ylsulphonyl)naphthalen-1-amine])[1-methyl-3-benzyl-imidazol-2-ylidene]platinum(II)]",0.6,97.7,99.8,95.3,0.1,0.1,96.3,99.3,–,anti-angiogenic activity,99.9,100.8,99.3,–,–,–,–
"CN1C=CN(Cc2ccccc2)[CH]1[Pt]([I])([I])[NH]CCN (stereo not drawn) [Example 33, trans-diiodo(N-ethylenediamine)[1-methyl-3-benzyl-imidazol-2-ylidene]platinum(II)]",–,–,–,–,–,–,–,–,–,–,–,–,–,–,–,3300,–
"CNC(=O)NCC(Cc1ccccc1)NC(=O)NCC(Cc1ccccc1)NC(=O)NCC(Cc1ccccc1)NC(=O)NCC(N)Cc1ccccc1.Cn1ccn(Cc2ccccc2)[c]1=[Pt]([I])[I] [Example 39, trans-diiodo(N-[1-((2R,7R,12R,17R)-17-amino-2,7,12-tribenzyl-4,9,14-trioxo-18-phenyl-3,5,8,10,13,15-hexaazaoctadecyl)-3-methylurea])[1-methyl-3-benzyl-imidazol-2-ylidene]platinum(II)]",1.4,95.2,96.1,91.0,0.6,0.6,92.1,95.9,1.9,anti-angiogenic activity,99.3,101.2,90.9,–,0.4,–,–
trans-diiodo(N-[(methoxy)polyethylene glycol amine])[1-methyl-3-benzyl-imidazol-2-ylidene]platinum(II) [Example 22],–,90.3,94.3,87.4,–,–,90.0,91.7,–,anti-angiogenic activity,93.7,77.8,78.5,–,–,–,11100
